The results in this text go back to patent US11459325B2, “Heterocyclic compound” (Takeda Pharmaceutical Company Limited, priority 2018, dated 2022).

This assay deals with GBA mutant human fibroblasts GM008760. The assay is described as follows: Glucosylceramide lowering assay. It counts as cell-based. As to conditions: Homo sapiens, Fibroblast, 96 h; 10 μM test compound, 4 days culture; GlcCer (C16:0)/Cer (C16:0) molar ratio of test compound group relative to DMSO control group x100; smaller value = glucosylceramide lowering. Here is the method:
Glucosylceramide Lowering Assay
Using GBA mutant human fibroblasts containing mutated glucosylceramidase, the effect of test compounds on glucosylceramide reduction was evaluated.
GBA mutant human fibroblasts GM008760 (Coriel Institute) were seeded in a 96-well multiwell plate at a density of 5,000 cells/100 μL culture solution/well. GlutaMAX (Thermo Fishcer Scientific), penicillin-streptomycin, and Minimum Essential Media (Thermo Fishcer Scientific) supplemented with 15% fetal bovine serum were used as a culture solution. After culturing for 2 days, a 10 mM DMSO solution of the test compound diluted with the culture solution was added to a 96-well plate by 100 μL to adjust a final test compound concentration to 10 μM. After culturing the cells for 4 days in the presence of the test compound, the culture solution was removed, and the cells adhered to the 96-well plate were washed with a phosphate buffer (ThermoFisher Scientific, product number 14190-144). A solvent composed of 50% ethanol and 50% isopropanol was added to the 96-well plate by 100 μL, and the intracellular lipids were dissolved by pipetting. A solution prepared by dissolving N-Octadecanoyl-D35-psychosine (50 ng/mL, Matreya LLC Inc.) as an internal standard in 50% ethanol and 50% isopropanol was added to the sample in an equal volume, and 2.5 μL of the centrifuged supernatant was used as the test compound group.
In the same manner as above, a control group was prepared by using DMSO instead of the 10 mM DMSO solution of the test compound.
For the test compound group and the control group, molar concentrations of glucosylceramide [GlcCer (C16:0)] and ceramide [Cer (C16:0)] were quantified using Rapidfire-MS/MS (API-5000, Turbo-ESI, SRM), and the glucosylceramide lowering effect of the test compound group relative to the control group was evaluated by the following formula. (GlcCer/Cer of test compound group)/(GlcCer/Cer of control group)×100 wherein GlcCer/Cer is the ratio of the molar concentration of glucosylceramide to that of ceramide.
In this test, when the numerical value obtained by the above calculation formula is small, glucosylceramide is metabolized to ceramide by the test compound, or the synthesis of glucosylceramide from ceramide is inhibited by the test compound, that is, it can be said that the test compound has a glucosylceramide lowering effect.
On to `Cc1cn(C)c(=O)c2c(C(=O)N[C@H]3CCC[C@@H]3c3ccccc3)cn(C)c12` (racemic) [Example 110, 1,5,7-trimethyl-4-oxo-N-[rac-(1S,2R)-2-phenylcyclopentyl]-4,5-dihydro-1H-pyrrolo[3,2-c]pyridine-3-carboxamide], for which the activity at 10 µM was 58%. `Cc1cn(C)c(=O)c2c(C(=O)N[C@H]3CCC[C@H]3c3ccccc3)cn(C)c12` (racemic) [Example 111, 1,5,7-trimethyl-4-oxo-N-[rac-(1S,2S)-2-phenylcyclopentyl]-4,5-dihydro-1H-pyrrolo[3,2-c]pyridine-3-carboxamide]: the activity at 10 µM amounted to 61%.

Turning to `Cc1cn(C)c(=O)c2c(C(=O)N[C@H]3CCCC[C@@H]3c3ccccc3)cn(C)c12` (racemic) [Example 112, 1,5,7-trimethyl-4-oxo-N-[rac-(1S,2R)-2-phenylcyclohexyl]-4,5-dihydro-1H-pyrrolo[3,2-c]pyridine-3-carboxamide], the activity at 10 µM worked out at 61%. As for `Cc1cn(C)c(=O)c2c(C(=O)N[C@H]3CCCC[C@H]3c3ccccc3)cn(C)c12` (racemic) [Example 113, 1,5,7-trimethyl-4-oxo-N-[rac-(1S,2S)-2-phenylcyclohexyl]-4,5-dihydro-1H-pyrrolo[3,2-c]pyridine-3-carboxamide], the figure is 41%. For `Cc1cn(C)c(=O)c2c(C(=O)N[C@H]3CCC[C@H](c4ccccc4)C3)cn(C)c12` (racemic) [Example 114, 1,5,7-trimethyl-4-oxo-N-[rac-(1S,3S)-3-phenylcyclohexyl]-4,5-dihydro-1H-pyrrolo[3,2-c]pyridine-3-carboxamide], the activity at 10 µM amounted to 58%. To `CCCCO[C@H]1CC[C@H](NC(=O)c2cn(C)c3c(C)cn(C)c(=O)c23)CC1` [Example 2, N-(trans-4-butoxycyclohexyl)-1,5,7-trimethyl-4-oxo-4,5-dihydro-1H-pyrrolo[3,2-c]pyridine-3-carboxamide] belongs 87%.

Consider `Cc1cn(C)c(=O)c2c(C(=O)NC3CCC(c4ccccc4)CC3)cn(C)c12` (stereo not shown) [Example 21, 1,5,7-trimethyl-4-oxo-N-(4-phenylcyclohexyl)-4,5-dihydro-1H-pyrrolo[3,2-c]pyridine-3-carboxamide], for which the activity at 10 µM came out at 67%. To `COc1cc(NC(=O)c2cn(C)c3c(C)cn(C)c(=O)c23)ccn1` [Example 36, N-(2-methoxypyridin-4-yl)-1,5,7-trimethyl-4-oxo-4,5-dihydro-1H-pyrrolo[3,2-c] pyridine-3-carboxamide] belongs 65%. Take `COc1ccnc(NC(=O)c2cn(C)c3c(C)cn(C)c(=O)c23)c1` [Example 37, N-(4-methoxypyridin-2-yl)-1,5,7-trimethyl-4-oxo-4,5-dihydro-1H-pyrrolo[3,2-c] pyridine-3-carboxamide]: the activity at 10 µM turned out to be 68%. As for `Cc1cn(C)c(=O)c2c(C(=O)Nc3ccc(C#N)cn3)cn(C)c12` [Example 40, N-(5-cyanopyridin-2-yl)-1,5,7-trimethyl-4-oxo-4,5-dihydro-1H-pyrrolo[3,2-c]pyridine-3-carboxamide], the figure is 62%; as for `CCCCOC1CCCC(NC(=O)c2cn(C)c3c(C)cn(C)c(=O)c23)C1` (stereo not shown) [Example 57, N-(3-butoxycyclohexyl)-1,5,7-trimethyl-4-oxo-4,5-dihydro-1H-pyrrolo[3,2-c]pyridine-3-carboxamide], 65%; as for `Cc1cn(C)c(=O)c2c(C(=O)N3CCC(c4ccc(Cl)cc4)C3)cn(C)c12` (stereo not shown) [Example 71, 3-((3-(4-chlorophenyl)pyrrolidin-1-yl)carbonyl)-1,5,7-trimethyl-1,5-dihydro-4H-pyrrolo[3,2-c]pyridin-4-one], 68%. On to `Cc1cn(C)c(=O)c2c(C(=O)N3CC4CC4(c4ccc(Cl)cc4)C3)cn(C)c12` (stereo not shown) [Example 72, 3-((1-(4-chlorophenyl)-3-azabicyclo[3.1.0]hex-3-yl)carbonyl)-1,5,7-trimethyl-1,5-dihydro-4H-pyrrolo[3,2-c]pyridin-4-one], for which the activity at 10 µM turned out to be 38%.
